Test results published in patent US20210038587A1, “METHODS AND COMPOSITIONS FOR TREATING NON-ERK MAPK PATHWAY INHIBITOR-RESISTANT CANCERS” (BIOMED VALLEY DISCOVERIES, INC., priority 2013, published 2021).

Columns and labels:
MIAPaCa-2 = experiment: Reverse Phase Protein Analysis (RPPA); format: cell-based; conditions: MIAPaca2; % change from DMSO (matched cell line); as to Avg (4ebp1 T70): test concentration or dose not given here; as to Avg (Akt): test concentration or dose not given here; as to Avg (CREB S133): test concentration or dose not given here; as to Avg (Chk1): test concentration or dose not given here; as to Avg (Mcl1): test concentration or dose not given here; as to Avg (Raptor): test concentration or dose not given here
Colo205 = experiment: Reverse Phase Protein Analysis (RPPA); format: cell-based, human; conditions: % change from DMSO (matched cell line)
Protocol: Control wells were treated with DMSO at 0.1% (v/v) for 6 hours prior to cell lysate generation. Samples were then analyzed using reverse-phase protein microarray technology (Theranostics Health).
Cell lines with common alterations in BRAF and RAS were assayed: BRAF^V600E mutant lines A375, Colo205, and HT29; KRAS^G12C-mutant cell line MIAPACa-2; KRAS^G13D-mutant cell line HCT116; and AN3Ca with atypical HRAS^F82L mutation.

O=C(Nc1ccc2[nH]nc(-c3ccncc3)c2c1)[C@@H]1CCN(CC(=O)N2CCN(c3ccc(-c4ncccn4)cc3)CC2)C1 [SCH772984]
Avg (4ebp1 T70) (MIAPaCa-2): 19.27%
Avg (Akt S473) (MIAPaCa-2): 2.84%
Avg (Akt) (MIAPaCa-2): 13.47%
Avg (Bad S136) (MIAPaCa-2): 8.62%
Avg (Bad S155) (MIAPaCa-2): −1.71%
Avg (Bak) (MIAPaCa-2): −10.88%
Avg (Bax) (MIAPaCa-2): 15.67%
Avg (Bcl 2) (MIAPaCa-2): 4.96%
Avg (Bcl2 S70) (MIAPaCa-2): −4.23%
Avg (Bcl 2 T56) (MIAPaCa-2): −1.98%
Avg (Bim) (MIAPaCa-2): 2.08%
Avg (CREB S133) (MIAPaCa-2): −6.63%
Avg (Caspase 3 CL D175) (MIAPaCa-2): 21.05%
Avg (Caspase 7 Cl D198) (MIAPaCa-2): 8.35%
Avg (Chk1) (MIAPaCa-2): 12.07%
Avg (Chk1 S345) (MIAPaCa-2): 13.39%
Avg (Cyclin D1) (MIAPaCa-2): −39.88%
Avg (ERK 1 2) (MIAPaCa-2): −23.09%
Avg (ERK 1 2 T202 Y204) (MIAPaCa-2): −76.71%
Avg (MAK1 S360) (MIAPaCa-2): 2.74%
Avg (Mcl1) (MIAPaCa-2): −1.88%
Avg (Raptor S792) (MIAPaCa-2): 4.43%
Avg (Raptor) (MIAPaCa-2): 17.66%
Avg (Rictor) (MIAPaCa-2): −15.15%
Avg (Stat1) (MIAPaCa-2): 7.17%
Avg (Stat3) (MIAPaCa-2): −9.19%
Avg (bad S112) (MIAPaCa-2): −33.07%
Avg (c Fos) (MIAPaCa-2): −8.99%
Avg (c Myc) (MIAPaCa-2): 2.11%
Avg (mTOR S2448) (MIAPaCa-2): −11.48%
Avg (mTOR S2481) (MIAPaCa-2): 2.43%
Avg (mTOR) (MIAPaCa-2): 1.64%
Avg (p70 S6 Kinase) (MIAPaCa-2): −7.51%
Avg (p90 RSK S380) (MIAPaCa-2): −38.58%
Avg(S6 Ribo Prot S235 236) (MIAPaCa-2): −77.57%
Avg(S6 Ribo Prot S240 244) (MIAPaCa-2): −86.61%
Avg(Tuberin TSC2 Y1571) (MIAPaCa-2): 8.86%
Avg(p70 S6 Kinase S371 S394) (MIAPaCa-2): −40.47%
Avg(p70 S6 Kinase T389 T412) (MIAPaCa-2): −50.97%
Avg (4ebp1 T70) (Colo205): −27.51%
Avg (Akt S473) (Colo205): −1.74%
Avg (Akt) (Colo205): −10.31%
Avg (Bad S136) (Colo205): 1.88%
Avg (Bad S155) (Colo205): −10.96%
Avg (Bak) (Colo205): 4.59%
Avg (Bax) (Colo205): −6.44%
Avg (Bcl 2) (Colo205): −14.56%
Avg (Bcl2 S70) (Colo205): −18.52%
Avg (Bcl 2 T56) (Colo205): −6.73%
Avg (Bim) (Colo205): 29.22%
Avg (CREB S133) (Colo205): −14.56%
Avg (Caspase 3 CL D175) (Colo205): 14.08%
Avg (Caspase 7 Cl D198) (Colo205): 12.36%
Avg (Chk1) (Colo205): 7.49%
Avg (Chk1 S345) (Colo205): 1%
Avg (Cyclin D1) (Colo205): −36.7%
Avg (ERK 1 2) (Colo205): −31.87%
Avg (ERK 1 2 T202 Y204) (Colo205): −91.43%
Avg (MAK1 S360) (Colo205): 7.54%
Avg (Mcl1) (Colo205): −0.14%
Avg (Raptor S792) (Colo205): −4.17%
Avg (Raptor) (Colo205): −2.2%
Avg (Rictor) (Colo205): −19.07%
Avg (Stat1) (Colo205): −4.31%
Avg (Stat3) (Colo205): −6.1%
Avg (bad S112) (Colo205): −29.4%
Avg (c Fos) (Colo205): −15.17%
Avg (c Myc) (Colo205): −0.64%
Avg (mTOR S2448) (Colo205): −9.44%
Avg (mTOR S2481) (Colo205): −6.68%
Avg (mTOR) (Colo205): −5.62%
Avg (p70 S6 Kinase) (Colo205): −2.85%
Avg (p90 RSK S380) (Colo205): −62.31%
Avg(S6 Ribo Prot S235 236) (Colo205): −94.67%
Avg(S6 Ribo Prot S240 244) (Colo205): −95.09%
Avg(Tuberin TSC2 Y1571) (Colo205): −1.38%
Avg(p70 S6 Kinase S371 S394) (Colo205): −14.59%
Avg(p70 S6 Kinase T389 T412) (Colo205): −30.4%
